Source: the supplement of paper PMC10307832

Tests used:
Assay in all cases: relative viability (nuclei count vs DMSO), 5 days (fraction); higher = more cells survive
Bortezomib + Foretinib = compound: CC(C)C[C@H](NC(=O)[C@H](Cc1ccccc1)NC(=O)c1cnccn1)B(O)O [Bortezomib] + COc1cc2c(Oc3ccc(NC(=O)C4(C(=O)Nc5ccc(F)cc5)CC4)cc3F)ccnc2cc1OCCCN1CCOCC1 [Foretinib] (partner 0.25 µM)
How it was run: (§1)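 Relative viability was taken as the ratio of nuclei in treated wells to nuclei in vehicle wells. Lung cancer cell lines in 1536-well plates received compounds by pin tool one day after seeding, either one drug alone or a fixed anchor-drug dose plus five library-drug doses (not always all listed) in √10 steps. Nuclei were counted on 4× images after 5 days of treatment, and values are medians of duplicate plates.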

[1] = compound: CC1=CC(=NN1)NC2=CC(=NC(=N2)/C=C/C3=CC=CC=C3)N4CCN(CC4)C + CS(=O)(=O)N1CCN(Cc2cc3nc(-c4cccc5[nH]ncc45)nc(N4CCOCC4)c3s2)CC1 [Pictilisib] (partner 1 µM)
How it was run: as §1

Obatoclax + Bortezomib = compound: COC1=CC(c2cc3ccccc3[nH]2)=N/C1=C\c1[nH]c(C)cc1C [Obatoclax] + CC(C)C[C@H](NC(=O)[C@H](Cc1ccccc1)NC(=O)c1cnccn1)B(O)O [Bortezomib] (partner 0.002 µM)
How it was run: as §1

Obatoclax + Alpelisib = compound: COC1=CC(c2cc3ccccc3[nH]2)=N/C1=C\c1[nH]c(C)cc1C [Obatoclax] + Cc1nc(NC(=O)N2CCC[C@H]2C(N)=O)sc1-c1ccnc(C(C)(C)C(F)(F)F)c1 [Alpelisib] (partner 2 µM)
How it was run: as §1

Cell Line	relative viability (Bortezomib + Foretinib; first compound 0.0002 µM)	relative viability (Bortezomib + Foretinib; first compound 0.000632 µM)	relative viability (Bortezomib + Foretinib; first compound 0.002 µM)	relative viability (Bortezomib + Foretinib; first compound 0.006325 µM)	relative viability (Bortezomib + Foretinib; first compound 0.02 µM)	relative viability ([1]; first compound 0.08 µM)	relative viability ([1]; first compound 0.253 µM)	relative viability ([1]; first compound 0.8 µM)	relative viability ([1]; first compound 2.53 µM)	relative viability ([1]; first compound 8 µM)	relative viability (Obatoclax + Bortezomib; first compound 0.01 µM)	relative viability (Obatoclax + Bortezomib; first compound 0.03162 µM)	relative viability (Obatoclax + Bortezomib; first compound 0.1 µM)	relative viability (Obatoclax + Bortezomib; first compound 0.3162 µM)	relative viability (Obatoclax + Bortezomib; first compound 1 µM)	relative viability (Obatoclax + Alpelisib; first compound 0.01 µM)	relative viability (Obatoclax + Alpelisib; first compound 0.03162 µM)	relative viability (Obatoclax + Alpelisib; first compound 0.1 µM)	relative viability (Obatoclax + Alpelisib; first compound 0.3162 µM)	relative viability (Obatoclax + Alpelisib; first compound 1 µM)
UMC-11	0.801	0.97	0.96	0.449	0.175	0.79	0.813	0.606	0.158	0.108	0.645	0.428	0.689	0.743	0.265	0.954	0.892	1.03	0.584	0.442
NCI-H520	0.871	0.773	0.58	0.184	0.148	0.335	0.306	0.251	0.156	0.127	0.664	0.525	0.562	0.299	0.264	0.901	0.953	0.92	0.7	0.835
NCI-H2085	1.04	1.08	1.05	0.273	0.199	0.437	0.39	0.431	0.18	0.236	1.06	1.1	0.93	0.88	0.427	0.89	0.925	0.98	0.57	0.29
NCI-H1651	0.788	0.772	0.423	0.101	0.112	0.656	0.622	0.583	0.201	0.0876	0.901	0.855	0.858	0.943	0.992	0.884	0.765	1.04	0.611	0.236
RERF-LC-KJ	0.944	0.886	0.929	0.761	0.221	0.593	0.519	0.495	0.27	0.168	1.04	1.07	1.09	0.851	0.765	0.754	0.811	0.805	0.803	0.775
NCI-H1755	0.939	0.972	0.868	0.494	0.192	0.418	0.351	0.419	0.195	0.0971	0.926	0.937	0.805	0.949	0.967	0.871	0.906	0.871	0.871	0.889
NCI-H2126	1.08	1.03	1.12	1.02	0.21	0.499	0.461	0.522	0.482	0.338	1.13	1.04	1.09	1.12	1.07	0.779	0.752	0.743	0.769	0.714
EPLC-272H	0.7	0.506	0.148	0.0867	0.0676	0.286	0.286	0.31	0.0769	0.152	0.833	0.88	1.05	0.864	0.894	1.08	0.962	0.808	0.906	0.941
NCI-H1975	0.927	0.926	0.132	0.104	0.107	0.284	0.307	0.25	0.128	0.0893	0.357	0.456	0.361	0.49	0.253	0.629	0.666	0.663	0.476	0.182
NCI-H3122	0.889	0.882	0.994	0.693	0.0999	0.588	0.345	0.659	0.428	0.291	0.966	1.01	1.02	1.03	1.06	0.787	0.812	0.792	0.707	0.751
COR-L 105	0.997	1	0.995	0.262	0.255	0.461	0.429	0.353	0.205	0.223	0.989	0.782	0.777	0.432	0.335	1.02	1.21	0.944	0.904	0.336
BEN	0.494	0.866	0.769	0.572	0.356	0.622	0.578	0.598	0.411	0.193	0.826	0.735	0.356	0.734	0.838	0.963	1	0.904	1.16	0.911
NCI-H1915	1.05	1.12	1.1	0.112	0.0806	0.948	0.674	0.885	0.571	0.289	1.05	0.748	0.93	1.01	0.975	1.05	0.965	0.993	1.08	1.05
NCI-H1703	0.324	0.342	0.211	0.153	0.176	–	0.24	0.179	0.182	0.131	0.456	0.38	0.304	0.227	0.22	0.41	0.344	0.412	0.321	0.276
NCI-H2009	1.14	1.21	1.23	0.237	0.0866	0.754	0.415	0.781	0.25	0.142	1.01	1.12	0.764	0.395	0.203	1.08	1.16	1.19	1.13	0.286
COR-L23	0.934	0.931	0.874	0.0924	0.0681	0.73	0.929	0.765	0.177	0.0607	0.962	1	0.961	0.461	0.187	0.765	0.808	0.675	0.209	0.182

Cell Line	relative viability (Bortezomib + Foretinib; first compound 0.0002 µM)	relative viability (Bortezomib + Foretinib; first compound 0.000632 µM)	relative viability (Bortezomib + Foretinib; first compound 0.002 µM)	relative viability (Bortezomib + Foretinib; first compound 0.006325 µM)	relative viability (Bortezomib + Foretinib; first compound 0.02 µM)	relative viability ([1]; first compound 0.08 µM)	relative viability ([1]; first compound 0.253 µM)	relative viability ([1]; first compound 0.8 µM)	relative viability ([1]; first compound 2.53 µM)	relative viability ([1]; first compound 8 µM)	relative viability (Obatoclax + Bortezomib; first compound 0.01 µM)	relative viability (Obatoclax + Bortezomib; first compound 0.03162 µM)	relative viability (Obatoclax + Bortezomib; first compound 0.1 µM)	relative viability (Obatoclax + Bortezomib; first compound 0.3162 µM)	relative viability (Obatoclax + Bortezomib; first compound 1 µM)	relative viability (Obatoclax + Alpelisib; first compound 0.01 µM)	relative viability (Obatoclax + Alpelisib; first compound 0.03162 µM)	relative viability (Obatoclax + Alpelisib; first compound 0.1 µM)	relative viability (Obatoclax + Alpelisib; first compound 0.3162 µM)	relative viability (Obatoclax + Alpelisib; first compound 1 µM)
NCI-H460	0.983	1.03	1.13	0.115	0.0294	0.32	0.427	0.383	0.221	0.036	1.01	1.19	0.945	0.0492	0.0392	0.509	0.481	0.309	0.0452	0.0244
LCLC-103H	0.679	0.698	0.268	0.162	0.13	0.623	0.676	0.58	0.5	0.347	1.01	1	0.992	1.07	1.05	0.938	0.907	0.97	0.961	1.02
HCC-827	1.11	1.01	0.693	0.113	0.0926	0.961	1.02	1.07	0.747	0.8	0.928	0.861	0.821	0.855	1.04	0.949	0.931	0.957	0.984	0.964
NCI-H322M	0.894	–	0.773	0.654	0.327	0.456	0.52	0.463	0.219	0.242	1.13	1.21	1.41	1.16	1.34	0.705	0.819	0.793	0.889	0.781
NCI-H1666	0.868	0.945	0.884	0.289	0.316	0.494	0.389	0.358	0.325	0.176	0.863	0.815	0.979	0.348	0.35	0.93	0.903	0.881	0.255	0.223
NCI-H1563	0.874	0.966	0.803	0.526	0.475	0.624	0.655	0.584	0.582	0.355	0.905	0.883	0.835	0.714	0.833	0.917	0.922	0.934	0.867	0.791
NCI-H1437	1.31	1.24	1.32	0.185	0.149	0.57	0.446	0.416	0.271	0.0592	0.463	0.421	0.477	0.438	0.358	0.97	0.922	0.962	1.01	0.88
NCI-H1355	0.944	0.983	0.998	0.155	0.14	0.412	0.36	0.395	0.263	0.118	1.23	1.11	1.09	1.06	1.21	0.866	0.905	0.795	0.681	0.658
SK-LU-1	0.742	0.86	0.67	0.128	0.112	0.595	0.587	0.56	0.285	0.0825	1.15	1.05	0.44	1.05	0.75	0.825	0.984	0.779	0.355	0.29
NCI-H2228	0.957	0.962	0.595	0.0857	0.0911	0.433	0.547	0.468	0.065	0.0792	0.96	1.01	1.25	0.626	0.367	0.662	0.601	0.629	0.436	0.27
IA-LM	1.26	1.1	1.16	0.0393	0.0142	0.319	0.505	0.378	0.173	0.0595	0.838	0.723	0.727	0.0591	0.0714	0.843	0.743	0.612	0.327	0.0686
NCI-H2347	0.741	1.3	1.09	0.275	0.327	0.63	0.342	0.777	0.417	0.333	0.935	0.859	1.07	–	0.95	1.02	0.994	0.841	1.01	0.93
A-427	1.02	1.1	0.932	0.483	0.122	0.836	0.247	0.741	0.401	0.11	1.02	0.966	1.01	1.01	0.944	1.14	1.09	1.13	1.04	1.01
HCC-366	0.917	0.889	1.01	0.627	0.0395	0.148	0.156	0.136	0.112	0.0428	1.06	1	1.08	0.88	1.04	0.382	0.363	0.366	0.396	0.233
HCC-78	0.505	0.577	0.492	0.432	0.254	0.219	0.216	0.214	0.202	0.108	0.539	0.402	0.718	0.456	0.743	0.314	0.35	–	0.26	0.321
PC-14	1.04	1.03	1.02	0.588	0.159	0.651	0.635	0.56	0.199	0.0209	0.782	0.947	0.777	0.798	0.283	0.875	0.92	0.892	0.775	0.632
